Assay results published in US20260223847A1, “Compounds for Increasing Frost Tolerance in Plants” (VIB VZW, priority 2023, published 2026).

Key:
Type in all cases: in vivo
[1] = tested on: Arabidopsis Col-0 seedlings; assay: Arabidopsis hypocotyl elongation (growth) assay; conditions: long day (LD: 16/8 h) conditions
Procedure: FIG. 1: Left: hypocotyl length of Arabidopsis Col-0 seedlings germinated on solid ½MS medium for 4 days and then transferred for 3 more days to liquid ½MS supplemented with a range of concentrations of A68. Right: primary root length of Arabidopsis Col-0 seedlings grown on solid ½MS medium supplemented with a range of concentrations of A68 for 12 days. FIG. 2: Effects of A68 and its related variants on the Arabidopsis hypocotyl elongation. Arabidopsis seedlings were grown on solid ½MS medium for 4 days and then transferred for 3 more days to liquid ½ MS supplemented with the studied compounds at either 0.5 or 50 μM final concentration. Hypocotyl length is represented relative to that of mock-treated seedlings from the same biological repeats. n>400 seedlings for DMSO and A68 initial hit (control treatments throughout the experiments), n>30 seedlings for the A68 variants. Student's two-sample t-test, *P<0.05, **P<0.01 and ***P<0.001. FIG. 3: Hypocotyl elongation dose-response curves for A68 and three bioactive variants A68-6, A68-8 and A68-53 showing the half-maximum effective concentration EC50. A bioactive compound, herein further designated as A68, was identified by screening a commercial 10,000 compound library (DIVERSet, ChemBridge Corporation) for hypocotyl elongation phenotype at a final concentration of 50 μM in 2% DMSO. […]

[2] = tested on: Strawberry, Fragaria ananasa, cv. Elsanta; assay: Efficacy trial against frost damage on strawberry (trial 22.RM.SAB.028)
Excerpt: Preparation of the agronomical formulation: compound A68 is suspended in acetone at a concentration of 1 g/l. Further in this example this suspension is designated as 22.SC.040.
Trial setup: Strawberry, Fragaria ananasa, tray plants cv. Elsanta were planted in P13 pots, 1 plant per pot. The used substrate was a standard strawberry-substrate with addition of 180 g Osmocoat/651 substrate. (Osmocoat 18-5-11+4CaO+2MgO Agroblen 3-4 months).
36 plants (6 objects×6 repetitions) were randomly placed on tables with eb-flood system (21 l/2.5 m2 during 10 minutes, 2×/24 hours) in the greenhouse (22° C./10° C. day/night; 50% RH).
Foliar applications were executed in a standardized spraying cabin. A nozzle (Albuz TVI, color green) moved over the plants with a constant speed, simulating a spraying volume of 300l/ha.
At full bloom of the first flower branch, these branches were marked with a plastic strip. The plants were placed on pallets and enter a fridge at 5° C. during night, to decrease warmth in the substrate and chill the plants. The next morning, the plants were moved from the fridge to a freezing container. […]
One day and one week after frost, the flowers on the marked branches were assessed. […]
When the fruits ripen, the ripe fruits were picked. […] Also, the number of fruits were counted and the weight was measured. […]

[3] = tested on: Arabidopsis seedlings; assay: Osmotic stress tolerance in Arabidopsis seedlings (sorbitol); conditions: low concentrations; ½MS with sorbitol
Procedure: FIGS. 4A-4D: Effect of A68 and its variant A68-6 on Arabidopsis growth in osmotic stress conditions. The two compounds were tested at 3 different concentrations in ½MS without sucrose supplemented with 100 mM sorbitol. The extent of stress tolerance in presence of the small molecules was estimated by following the rosette size (FIG. 4A) as well as root related parameters, such as the total (FIG. 4B) and main (FIG. 4C) root length and lateral root number (FIG. 4D). Results are presented relative to the mock-treated control (0.005% DMSO). FIGS. 5A-5D: Effect of A68-6 on Arabidopsis growth in osmotic stress conditions. The compound was tested at 3 different concentrations in ½MS without sucrose supplemented with 200 mM sorbitol. The extent of stress tolerance in presence of the small molecules was estimated by following the rosette size (FIG. 5A) as well as root related parameters, such as the total (FIG. 5B) and main (FIG. 5C) root length and lateral root number (FIG. 5D). Results are presented relative to the mock-treated control (0.005% DMSO).

[4] = tested on: Arabidopsis Col-0 seedlings; assay: Arabidopsis primary root growth / lateral root number; conditions: long day (LD: 16/8 h) conditions
Excerpt: FIG. 1: Left: hypocotyl length of Arabidopsis Col-0 seedlings germinated on solid ½MS medium for 4 days and then transferred for 3 more days to liquid ½MS supplemented with a range of concentrations of A68. Right: primary root length of Arabidopsis Col-0 seedlings grown on solid ½MS medium supplemented with a range of concentrations of A68 for 12 days. A bioactive compound, herein further designated as A68, was identified by screening a commercial 10,000 compound library (DIVERSet, ChemBridge Corporation) for hypocotyl elongation phenotype at a final concentration of 50 μM in 2% DMSO. A68 promotes hypocotyl elongation, while suppresses primary root growth but increases lateral root number under long day (LD: 16/8 h) conditions (see FIG. 1).

Compound: Cc1cccc(C(=O)Nc2ccc(Oc3ccc4c(c3)C(=O)NC4=O)cc2)c1 [Compound A68, N-(4-((1,3-dioxoisoindolin-5-yl)oxy)phenyl)-3-methylbenzamide]
- hypocotyl elongation [1]: promotes
- efficacy to decrease frost damage on strawberry ([2]; A68 suspended in acetone, foliar spray): clear indications of efficacy
- optimal dose-rate ([2]; maximum efficacy of the Gauss-curve): around 1000 mg/ha
- tolerance to mild osmotic stress [3]: enhance tolerance
- lateral root number [4]: increases
- primary root growth [4]: suppresses
